These results are taken from patent US20090099376A1, “TIGECYCLINE AND METHODS OF PREPARING INTERMEDIATES” (Wyeth, priority 2007, published 2009).

Series [1] has as its system vancomycin-resistant enterococci. Conditions: cited from earlier work.
For series [2], the system named is methicillin-resistant Staphylococcus aureus. The note with it: cited from earlier work.
Series [3] relates to penicillin-resistant Streptococcus pneumoniae. Conditions: cited from earlier work.
For series [4], the system named is organisms carrying either of the two major forms of tetracycline resistance: efflux and ribosomal protection. The note with it: organisms with tetracycline resistance by efflux or ribosomal protection; cited from earlier work.
A short description of series [5]: Solubility at RT in hydrogenation solvent mixtures doped with IPA. Format: physicochemical. An excerpt: An investigation by examining the solubility characteristics of 9-nitrominocycline and 9-aminominocycline sulfate in the presence of various amounts of IPA to gauge whether the starting material and/or product could in fact precipitate out in the reaction solvent was initiated.

Series [6] is described as follows: Dynamic vapor sorption (DVS) study. Format: physicochemical. The note with it: RH 90%. An excerpt:
As a comparison, we ran the DVS on 9-nitrominocycline. This intermediate picks up to 40% by weight of water at RH 90%.

Where [7] appears, read: 80:20 water:methanol with 20% wt/wt IPA, aqueous with cosolvent or surfactant or cyclodextrin, Exp. 8: +20% wt/wt IPA, 80:20 water:methanol.
Where [8] appears, read: 80:20 water:methanol with 35% wt/wt IPA, aqueous with cosolvent or surfactant or cyclodextrin, Exp. 9: +35% wt/wt IPA, 80:20 water:methanol.
Setting [9] is: 80:20 water:methanol with 50% wt/wt IPA, aqueous with cosolvent or surfactant or cyclodextrin, Exp. 10: +50% wt/wt IPA, 80:20 water:methanol.
Where [10] appears, read: v:v) with 0% wt/wt IPA, organic solvent or mixture, Exp. 1: MeOH:water (99:1, v:v) +0% wt/wt IPA.
Setting [11] is: v:v) with 4% wt/wt IPA, organic solvent or mixture, Exp. 2: MeOH:water (99:1, v:v) +4% wt/wt IPA.
Setting [12] is: v:v) with 20% wt/wt IPA, organic solvent or mixture, Exp. 3: MeOH:water (99:1, v:v) +20% wt/wt IPA.
Setting [13] is: v:v) with 35% wt/wt IPA, organic solvent or mixture, Exp. 4: MeOH:water (99:1, v:v) +35% wt/wt IPA.
The mark [14] stands for this setting: v:v) with 50% wt/wt IPA, organic solvent or mixture, Exp. 5: MeOH:water (99:1, v:v) +50% wt/wt IPA.

In brackets after ≈: the same amount, converted by molar mass.

Take `CN(C)c1cc(NC(=O)CNC(C)(C)C)c(O)c2c1C[C@H]1C[C@H]3[C@H](N(C)C)C(O)=C(C(N)=O)C(=O)[C@@]3(O)C(O)=C1C2=O` [Tigecycline, (4S,4aS,5aR,12aS)-9-[2-(tert-butylamino)acetamido]-4,7-bis(dimethylamino)-1,4,4a,5,5a,6,11,12a-octahydro-3,10,12,12a-tetrahydroxy-1,11-dioxo-2-naphthacenecarboxamide]: the Antibacterial activity entry in series [1], in series [2], in series [3] and in series [4] was “active” throughout.
Consider `CN(C)c1cc(N)c(O)c2c1C[C@H]1C[C@H]3[C@H](N(C)C)C(O)=C(C(N)=O)C(=O)[C@@]3(O)C(O)=C1C2=O` [9-aminominocycline], for which the “Solubility (in words)” value in series [5] (80:20 water:methanol) is recorded as “high”; in series [5] (99:1 methanol:water), “somewhat low”. Besides, the solubility in series [5] (setting [7]) came to 243 mg/mL (≈ 514 mM); in series [5] (setting [8]), 103 mg/mL (≈ 218 mM); in series [5] (setting [9]) it was 58 mg/mL (≈ 123 mM); in series [5] (organic solvent or mixture, Exp. 11: IPA Only), 1 mg/mL (≈ 2.12 mM); in series [5] (setting [10]), 14 mg/mL (≈ 29.6 mM); in series [5] (setting [11]), 16 mg/mL (≈ 33.9 mM). Moreover, the solubility in series [5] (setting [12]) came to 12 mg/mL (≈ 25.4 mM); in series [5] (setting [13]) it was 9 mg/mL (≈ 19 mM); in series [5] (setting [14]), 7 mg/mL (≈ 14.8 mM). Further, the “Solubility at RT” value is “high” in series [5] (Exp. 6: +0% wt/wt IPA, 80:20 water:methanol) and “high” in series [5] (Exp. 7: +4% wt/wt IPA, 80:20 water:methanol).
For `CN(C)c1cc([N+](=O)[O-])c(O)c2c1C[C@H]1C[C@H]3[C@H](N(C)C)C(O)=C(C(N)=O)C(=O)[C@@]3(O)C(O)=C1C2=O` [9-nitrominocycline], the “Solubility (in words)” value in series [5] (80:20 water:methanol) is recorded as “fairly high”. Further, the solubility in series [5] (80:20 water:methanol with 0% wt/wt IPA, aqueous with cosolvent or surfactant or cyclodextrin, Exp. 6: +0% wt/wt IPA, 80:20 water:methanol) is greater than 421 mg/mL; in series [5] (80:20 water:methanol with 4% wt/wt IPA, aqueous with cosolvent or surfactant or cyclodextrin, Exp. 7: +4% wt/wt IPA, 80:20 water:methanol), greater than 426 mg/mL; in series [5] (setting [7]), greater than 453 mg/mL; in series [5] (setting [8]), greater than 303 mg/mL; in series [5] (setting [9]), 333 mg/mL (≈ 663 mM); in series [5] (setting [10]), greater than 466 mg/mL. For the same molecule, the solubility in series [5] (setting [11]) is 129 mg/mL (≈ 257 mM); in series [5] (setting [12]) it was 68 mg/mL (≈ 135 mM); in series [5] (setting [13]), 30 mg/mL (≈ 59.7 mM); in series [5] (setting [14]), 23 mg/mL (≈ 45.8 mM). For the same molecule, the “Water uptake in DVS” value in series [6] is recorded as “up to 40 % by weight”.

By solubility is commonly meant the concentration that dissolves in the medium under given conditions.
